Assay results from paper PMC5218480 (PLoS ONE, 2017).

Tested on: MV-4-11 cells
Test: Gene expression microarray analysis (Affymetrix PrimeView) and GSEA
Assay type: cell-based, human
Design: RFU PODN (11730768_x_at) / Fold change /veh PODN (11730768_x_at) / RFU LINC00158 (11744669_a_at) / Fold change /veh LINC00158 (11744669_a_at) / RFU DUSP10 (11751237_a_at) / Fold change /veh DUSP10 (11751237_a_at) / RFU ID3 (11757404_x_at) / Fold change /veh ID3 (11757404_x_at) / RFU PLEKHG5 (11737974_s_at) / Fold change /veh PLEKHG5 (11737974_s_at) / RFU LRRC4B (11730491_at) / Fold change /veh LRRC4B (11730491_at) / RFU GIMAP4 (11747438_a_at) / Fold change /veh GIMAP4 (11747438_a_at) / RFU KRT8 (11758183_x_at) / Fold change /veh KRT8 (11758183_x_at) / RFU CNN1 (11734310_a_at) / Fold change /veh CNN1 (11734310_a_at) / RFU VPS37D (11726825_at) / Fold change /veh VPS37D (11726825_at) / RFU C10orf10 (11716522_x_at) / Fold change /veh C10orf10 (11716522_x_at) / RFU KIR2DL2 /// KIR2DL4 /// KIR2DL5A /// KIR2DL5B /// KIR2DS1 /// KIR2DS2 /// KIR2DS3 /// KIR2DS4 /// KIR3DL3 /// KIR3DL3 /// KIR3DS1 (11738374_at) / Fold change /veh KIR2DL2 /// KIR2DL4 /// KIR2DL5A /// KIR2DL5B /// KIR2DS1 /// KIR2DS2 /// KIR2DS3 /// KIR2DS4 /// KIR3DL3 /// KIR3DL3 /// KIR3DS1 (11738374_at) / RFU C1QL1 (11718748_at) / Fold change /veh C1QL1 (11718748_at) / RFU TMPRSS4 (11747572_a_at) / Fold change /veh TMPRSS4 (11747572_a_at) / RFU HAMP (11756126_x_at) / Fold change /veh HAMP (11756126_x_at) / RFU RNFT2 (11725882_a_at) / Fold change /veh RNFT2 (11725882_a_at) / RFU NR4A2 (11747474_a_at) / Fold change /veh NR4A2 (11747474_a_at) / RFU ABCC12 (11746883_a_at) / Fold change /veh ABCC12 (11746883_a_at) / RFU TMEM136 (11760407_x_at) / Fold change /veh TMEM136 (11760407_x_at) / RFU CLDN22 /// WWC2 (11732394_at) / Fold change /veh CLDN22 /// WWC2 (11732394_at) / RFU HLA-DPB1 (11760878_x_at) / Fold change /veh HLA-DPB1 (11760878_x_at) / RFU SPINT1 (11716480_a_at) / Fold change /veh SPINT1 (11716480_a_at) / RFU GAP43 (11754022_s_at) / Fold change /veh GAP43 (11754022_s_at) / RFU A4GNT (11735810_at) / Fold change /veh A4GNT (11735810_at) / RFU PRB3 (11715151_x_at) / Fold change /veh PRB3 (11715151_x_at) / RFU TUBB4B (11761932_at) / Fold change /veh TUBB4B (11761932_at) / RFU CAPN14 (11732068_a_at) / Fold change /veh CAPN14 (11732068_a_at) / RFU TMCC2 (11721928_a_at) / Fold change /veh TMCC2 (11721928_a_at) / RFU IRGQ (11745062_a_at) / Fold change /veh IRGQ (11745062_a_at) / RFU FAM174B (11720279_a_at) / Fold change /veh FAM174B (11720279_a_at) / RFU TMPRSS4 (11748680_a_at) / Fold change /veh TMPRSS4 (11748680_a_at) / RFU FAM212B (11763350_a_at) / Fold change /veh FAM212B (11763350_a_at) / RFU PLEKHG5 (11743358_a_at) / Fold change /veh PLEKHG5 (11743358_a_at) / RFU ZSCAN30 (11745921_a_at) / Fold change /veh ZSCAN30 (11745921_a_at) / RFU CMKLR1 (11741424_a_at) / Fold change /veh CMKLR1 (11741424_a_at) / RFU LOC101060620 /// MAPK8IP1 (11723275_at) / Fold change /veh LOC101060620 /// MAPK8IP1 (11723275_at) / RFU SPTSSB (11747773_x_at) / Fold change /veh SPTSSB (11747773_x_at) / RFU PRSS12 (11739890_at) / Fold change /veh PRSS12 (11739890_at) / RFU BIN1 (11741810_x_at) / Fold change /veh BIN1 (11741810_x_at) / RFU WNT11 (11732464_a_at) / Fold change /veh WNT11 (11732464_a_at) / RFU C10orf10 (11716521_a_at) / Fold change /veh C10orf10 (11716521_a_at) / RFU C5orf56 (11738089_at) / Fold change /veh C5orf56 (11738089_at) / RFU CYB561 (11721691_x_at) / Fold change /veh CYB561 (11721691_x_at) / RFU ANKRD19P (11752326_a_at) / Fold change /veh ANKRD19P (11752326_a_at) / RFU OR2T12 /// OR2T33 /// OR2T8 (11738714_s_at) / Fold change /veh OR2T12 /// OR2T33 /// OR2T8 (11738714_s_at) / RFU VCAN (11748164_a_at) / Fold change /veh VCAN (11748164_a_at) / RFU JSRP1 (11732532_at) / Fold change /veh JSRP1 (11732532_at) / RFU KRTAP10-11 (11738290_x_at) / Fold change /veh KRTAP10-11 (11738290_x_at) / RFU MYO3A (11730013_a_at) / Fold change /veh MYO3A (11730013_a_at) / RFU EBF3 (11725865_a_at) / Fold change /veh EBF3 (11725865_a_at) / RFU CAMK2N1 (11719241_x_at) / Fold change /veh CAMK2N1 (11719241_x_at) / RFU C5orf56 (11738088_a_at) / Fold change /veh C5orf56 (11738088_a_at) / RFU OLFML3 (11715873_a_at) / Fold change /veh OLFML3 (11715873_a_at) / RFU LOC100653217 /// NTM (11731650_a_at) / Fold change /veh LOC100653217 /// NTM (11731650_a_at) / RFU MAPK11 (11762145_a_at) / Fold change /veh MAPK11 (11762145_a_at) / RFU FIZ1 (11724087_x_at) / Fold change /veh FIZ1 (11724087_x_at) / RFU OASL (11726364_x_at) / Fold change /veh OASL (11726364_x_at) / RFU SOX15 (11748057_x_at) / Fold change /veh SOX15 (11748057_x_at) / RFU CD79A (11719716_a_at) / Fold change /veh CD79A (11719716_a_at) / RFU HIST1H1D (11736915_at) / Fold change /veh HIST1H1D (11736915_at) / RFU CASKIN2 (11723855_a_at) / Fold change /veh CASKIN2 (11723855_a_at) / RFU LOC730098 (11760151_x_at) / Fold change /veh LOC730098 (11760151_x_at) / RFU OR4N2 (11742367_at) / Fold change /veh OR4N2 (11742367_at) / RFU PRRT2 (11749266_a_at) / Fold change /veh PRRT2 (11749266_a_at) / RFU SNX32 (11753110_a_at) / Fold change /veh SNX32 (11753110_a_at) / RFU CDHR5 (11726645_a_at) / Fold change /veh CDHR5 (11726645_a_at) / RFU RCAN1 (11760418_a_at) / Fold change /veh RCAN1 (11760418_a_at) / RFU FAM167A (11723789_a_at) / Fold change /veh FAM167A (11723789_a_at) / RFU FAM26E (11764081_at) / Fold change /veh FAM26E (11764081_at) / RFU ISYNA1 (11749810_s_at) / Fold change /veh ISYNA1 (11749810_s_at) / RFU ACY1 (11761880_at) / Fold change /veh ACY1 (11761880_at) / RFU 11764098_at / Fold change /veh 11764098_at / RFU SAMD14 (11745864_x_at) / Fold change /veh SAMD14 (11745864_x_at) / RFU NPB (11741838_a_at) / Fold change /veh NPB (11741838_a_at) / RFU TMPRSS6 (11731388_a_at) / Fold change /veh TMPRSS6 (11731388_a_at) / RFU KRTAP10-2 (11738614_at) / Fold change /veh KRTAP10-2 (11738614_at) / RFU ARHGAP8 /// PRR5-ARHGAP8 (11727945_x_at) / Fold change /veh ARHGAP8 /// PRR5-ARHGAP8 (11727945_x_at) / RFU KRTAP5-7 /// NADSYN1 (11734609_at) / Fold change /veh KRTAP5-7 /// NADSYN1 (11734609_at) / RFU RASL12 (11751679_a_at) / Fold change /veh RASL12 (11751679_a_at) / RFU CDKN2B (11736163_a_at) / Fold change /veh CDKN2B (11736163_a_at) / RFU PRF1 (11729649_at) / Fold change /veh PRF1 (11729649_at) / RFU, ZNF638 /// ZNF638-IT1 / Fold change vs veh, ZNF638 /// ZNF638-IT1 / RFU, PANK3 / Fold change vs veh, PANK3 / RFU, SH3YL1 / Fold change vs veh, SH3YL1 / RFU, ZEB2 / Fold change vs veh, ZEB2 / RFU, NRIP1 / Fold change vs veh, NRIP1 / RFU, PTTG1IP / Fold change vs veh, PTTG1IP / RFU, CAPN2 / Fold change vs veh, CAPN2 / RFU, MED14 / Fold change vs veh, MED14 / RFU, SNORA58 / Fold change vs veh, SNORA58 / RFU, C1orf63 / Fold change vs veh, C1orf63 / RFU, LRRFIP1 / Fold change vs veh, LRRFIP1 / RFU, NDUFAF7 / Fold change vs veh, NDUFAF7 / RFU, SLC12A2 / Fold change vs veh, SLC12A2 / RFU, IBTK / Fold change vs veh, IBTK / RFU, ESF1 / Fold change vs veh, ESF1 / Fold change vs veh, TMEM50B / RFU, TAOK1 / Fold change vs veh, TAOK1 / RFU, ACBD3 / Fold change vs veh, ACBD3 / RFU, TMA16 / Fold change vs veh, TMA16 / RFU, RWDD3 / Fold change vs veh, RWDD3 / RFU, BCAT1 / Fold change vs veh, BCAT1 / RFU, EDEM3 / Fold change vs veh, EDEM3 / RFU, TMEM33 / Fold change vs veh, TMEM33 / RFU, WDR75 / Fold change vs veh, WDR75 / RFU, AHCTF1 / Fold change vs veh, AHCTF1 / RFU, TFRC / Fold change vs veh, TFRC / RFU, ZDHHC17 / Fold change vs veh, ZDHHC17 / RFU, NOM1 / Fold change vs veh, NOM1 / RFU, ARL8B / Fold change vs veh, ARL8B / RFU, ZBTB11 / Fold change vs veh, ZBTB11 / RFU, TAMM41 / Fold change vs veh, TAMM41 / RFU, KIAA1704 /// LOC100996395 / Fold change vs veh, KIAA1704 /// LOC100996395 / RFU, ING1 / Fold change vs veh, ING1 / RFU, TRMT61B / Fold change vs veh, TRMT61B / RFU, FUBP3 / Fold change vs veh, FUBP3 / RFU, TP53 / Fold change vs veh, TP53 / RFU, TNKS2 / Fold change vs veh, TNKS2 / RFU, ZFP14 / Fold change vs veh, ZFP14 / RFU, ACTR2 / Fold change vs veh, ACTR2 / RFU, PPP3R1 / Fold change vs veh, PPP3R1 / RFU, PIK3R1 / Fold change vs veh, PIK3R1 / RFU, HNRNPA1 / Fold change vs veh, HNRNPA1 / RFU, RNF170 / Fold change vs veh, RNF170 / RFU, ZNF28 / Fold change vs veh, ZNF28 / RFU, RNGTT / Fold change vs veh, RNGTT / RFU, OGT / Fold change vs veh, OGT / RFU, BRD1 / Fold change vs veh, BRD1 / RFU, MARS / Fold change vs veh, MARS / RFU, ZNF655 / Fold change vs veh, ZNF655 / RFU, FAHD1 / Fold change vs veh, FAHD1 / RFU, BDP1 / Fold change vs veh, BDP1 / RFU, LRRCC1 / Fold change vs veh, LRRCC1 / RFU, ARID1A / Fold change vs veh, ARID1A / RFU, ZNF146 / Fold change vs veh, ZNF146 / RFU, ZNF330 / Fold change vs veh, ZNF330 / RFU, GPN3 / Fold change vs veh, GPN3 / RFU, C9orf123 / Fold change vs veh, C9orf123 / RFU, N4BP2L2 / Fold change vs veh, N4BP2L2 / RFU, ARFIP1 / Fold change vs veh, ARFIP1 / RFU, FAM179B / Fold change vs veh, FAM179B / RFU, BCL10 / Fold change vs veh, BCL10 / RFU, UHRF1BP1L / Fold change vs veh, UHRF1BP1L / RFU, BET1 / Fold change vs veh, BET1 / RFU, CNOT2 / Fold change vs veh, CNOT2 / RFU, ZNF268 / Fold change vs veh, ZNF268 / Fold change vs veh, ZNF507 / RFU, DGCR2 / Fold change vs veh, DGCR2 / RFU, WDSUB1 / Fold change vs veh, WDSUB1 / Fold change vs veh, HSP90B1 /// MIR3652 / RFU, ADSS / Fold change vs veh, ADSS / RFU, GK / Fold change vs veh, GK / RFU, ZNF148 / Fold change vs veh, ZNF148 / RFU, TAF9 / Fold change vs veh, TAF9 / RFU, SLC1A5 / Fold change vs veh, SLC1A5 / RFU, SLMO2 / Fold change vs veh, SLMO2 / RFU, ABCC4 / Fold change vs veh, ABCC4 / RFU, LOC101060439 /// RAP1B / Fold change vs veh, LOC101060439 /// RAP1B / RFU, RFX7 / Fold change vs veh, RFX7 / RFU, GTPBP10 / Fold change vs veh, GTPBP10 / RFU, CNEP1R1 / Fold change vs veh, CNEP1R1 / RFU, BIVM-ERCC5 /// ERCC5 / Fold change vs veh, BIVM-ERCC5 /// ERCC5 / RFU, ILF3 / Fold change vs veh, ILF3 / RFU 11762660_at / Fold change /veh 11762660_at / RFU VCAN (11757783_s_at) / Fold change /veh VCAN (11757783_s_at) / RFU DDX43 (11728927_at) / Fold change /veh DDX43 (11728927_at) / RFU KRT8 (11758188_x_at) / Fold change /veh KRT8 (11758188_x_at) / RFU NKD1 (11759106_at) / Fold change /veh NKD1 (11759106_at) / RFU SRD5A1 (11742802_a_at) / Fold change /veh SRD5A1 (11742802_a_at) / RFU TPSAB1 /// TPSB2 (11721975_s_at) / Fold change /veh TPSAB1 /// TPSB2 (11721975_s_at) / RFU GSTM3 (11746129_a_at) / Fold change /veh GSTM3 (11746129_a_at) / RFU IL23R (11737362_x_at) / Fold change /veh IL23R (11737362_x_at) / RFU TMEM51 (11727254_a_at) / Fold change /veh TMEM51 (11727254_a_at) / RFU PIWIL2 (11732686_x_at) / Fold change /veh PIWIL2 (11732686_x_at) / RFU ORM1 (11744905_x_at) / Fold change /veh ORM1 (11744905_x_at) / RFU CCDC152 (11743942_at) / Fold change /veh CCDC152 (11743942_at) / RFU ECM1 (11717891_a_at) / Fold change /veh ECM1 (11717891_a_at) / RFU IL23R (11748794_a_at) / Fold change /veh IL23R (11748794_a_at) / RFU TNFAIP8L3 (11732012_x_at) / Fold change /veh TNFAIP8L3 (11732012_x_at) / RFU MBOAT4 (11741988_at) / Fold change /veh MBOAT4 (11741988_at) / RFU 11764193_at / Fold change /veh 11764193_at / RFU TMEM53 (11763286_at) / Fold change /veh TMEM53 (11763286_at) / RFU MAGEB2 (11727129_at) / Fold change /veh MAGEB2 (11727129_at) / RFU TMEM200A (11744735_a_at) / Fold change /veh TMEM200A (11744735_a_at) / RFU CCDC152 (11751479_a_at) / Fold change /veh CCDC152 (11751479_a_at) / RFU FAM211A (11726209_a_at) / Fold change /veh FAM211A (11726209_a_at) / RFU RGS16 (11746705_a_at) / Fold change /veh RGS16 (11746705_a_at) / RFU VCAN (11755009_s_at) / Fold change /veh VCAN (11755009_s_at) / RFU RHOB (11743442_s_at) / Fold change /veh RHOB (11743442_s_at) / RFU RGS16 (11720943_a_at) / Fold change /veh RGS16 (11720943_a_at) / RFU RGS16 (11720944_at) / Fold change /veh RGS16 (11720944_at) / RFU, VPS4B / Fold change vs veh, VPS4B / RFU, CREB1 / Fold change vs veh, CREB1 / RFU, DNAJC13 / Fold change vs veh, DNAJC13 / RFU, GNAQ / Fold change vs veh, GNAQ / RFU, CDK5R1 / Fold change vs veh, CDK5R1 / RFU, ZRANB3 / Fold change vs veh, ZRANB3 / RFU, CUL4A / Fold change vs veh, CUL4A / RFU, CCNY / Fold change vs veh, CCNY / RFU, UFL1 / Fold change vs veh, UFL1 / RFU, COG3 / Fold change vs veh, COG3 / RFU, DIAPH2 / Fold change vs veh, DIAPH2 / RFU, SKA2 / Fold change vs veh, SKA2 / RFU, AFF3 / Fold change vs veh, AFF3 / RFU, LMF1 / Fold change vs veh, LMF1 / RFU, IPO11 / Fold change vs veh, IPO11 / RFU, DFFB / Fold change vs veh, DFFB / RFU, FOXP1 / Fold change vs veh, FOXP1 / RFU, CARD8 / Fold change vs veh, CARD8 / RFU, STRN3 / Fold change vs veh, STRN3 / RFU, ADK / Fold change vs veh, ADK / RFU, RASSF2 / Fold change vs veh, RASSF2 / RFU, WIPF1 / Fold change vs veh, WIPF1 / RFU, LARP1B / Fold change vs veh, LARP1B / RFU, RASA1 / Fold change vs veh, RASA1 / RFU, RB1 / Fold change vs veh, RB1 / RFU, PPFIA1 / Fold change vs veh, PPFIA1 / RFU, MAT2A / Fold change vs veh, MAT2A / RFU, CCT5 / Fold change vs veh, CCT5 / RFU, WDR92 / Fold change vs veh, WDR92 / RFU, CUX1 / Fold change vs veh, CUX1 / RFU, TTC7A / Fold change vs veh, TTC7A / RFU, TMEM135 / Fold change vs veh, TMEM135 / RFU, DEPTOR / Fold change vs veh, DEPTOR / RFU, CPM / Fold change vs veh, CPM / RFU, DNAJB6 / Fold change vs veh, DNAJB6 / RFU, CACNA2D3 / Fold change vs veh, CACNA2D3 / RFU, DTX4 / Fold change vs veh, DTX4 / RFU, TFCP2 / Fold change vs veh, TFCP2 / RFU, GMCL1 /// GMCL1P1 / Fold change vs veh, GMCL1 /// GMCL1P1 / RFU, AEBP2 / Fold change vs veh, AEBP2 / RFU, SNHG1 /// SNORD22 /// SNORD25 /// SNORD26 /// SNORD27 /// SNORD28 /// SNORD29 /// SNORD31 / Fold change vs veh, SNHG1 /// SNORD22 /// SNORD25 /// SNORD26 /// SNORD27 /// SNORD28 /// SNORD29 /// SNORD31 / Fold change (Aza/veh), C12orf56 (ProbeSet 11735607_a_at) / Fold change (ACY-1035/veh), C12orf56 (ProbeSet 11735607_a_at) / Fold change (Aza/veh), FGFR1OP (ProbeSet 11751329_s_at) / Fold change (ACY-1035/veh), FGFR1OP (ProbeSet 11751329_s_at) / Fold change (Aza/veh), VPS36 (ProbeSet 11739960_a_at) / Fold change (ACY-1035/veh), VPS36 (ProbeSet 11739960_a_at) / RFU SYPL1 (11715823_x_at) / Fold change /veh SYPL1 (11715823_x_at) / RFU IGFBP7 (11715501_s_at) / Fold change /veh IGFBP7 (11715501_s_at) / RFU REEP3 (11722064_at) / Fold change /veh REEP3 (11722064_at) / RFU IGLL1 (11728026_x_at) / Fold change /veh IGLL1 (11728026_x_at): dose or concentration left out as unconfirmed
Details: MV-4-11 cells, 48 hours

With `Nc1ccc(-c2cccs2)cc1NC(=O)c1ccc2c(c1)cc(C1CC1)n2CCN1CCOCC1` [ACY-1035] the “RFU ZSCAN30 (11745921_a_at)” value was 7.88 RFU.
